Measurements taken from doi:10.1101/2023.08.31.555680v1 (biorxiv, 2023).

Assays:
[1] = biological target: RspA-splitFAST (assembled NC complex; FRB-RspA(N) + FKBP-RspA(C)); details: read-out: Kd,F/C; […] each FRB-N and FKBP-C preassembled with […] rapamycin
[2] = biological target: TsiA-FAST; details: PBS pH […] presumably; details in supplement
[3] = biological target: RspA-FAST; details: PBS pH […] presumably; details in supplement

| SMILES | Kd [1] | Kd [2] | Kd [3] |
| --- | --- | --- | --- |
| Cc1cc(/C=C2\SC(=S)NC2=O)ccc1O [HMBR] | 150 ± 10 nM |  |  |
| COc1cc(/C=C2\SC(=S)NC2=O)cc(OC)c1O [HBR-3,5DOM] |  | 60 nM | 74 nM |
